The values that follow come from ChEMBL document CHEMBL1151608, “Unusual cytotoxicities of 5-(acylethynyl)-1-(2-hydroxyethoxy)methyluracils” (Bioorg Med Chem Lett, 1996).

Holding throughout (format): functional, cell-based
One experiment relates to CCRF-CEM. Kind of experiment: In vitro cytotoxic effect of compound was measured against CCRF-CEM human lymphoblastoid cells.
The test system of the next experiment is HT-29. Briefly: In vitro cytotoxic effect of compound was measured against HT-29 tumor cells. The note with it: Homo sapiens.
The next experiment relates to L1210. Kind of experiment: In vitro cytotoxic effect of compound was measured against L1210/0 tumor cells in mouse.

By IC50 is commonly meant the point on the concentration scale where inhibition reaches its midpoint. A low value points to greater potency in that assay.

Structures are written as SMILES.

As for `COc1ccc(C(=O)C#Cc2cn(COCCO)c(=O)[nH]c2=O)cc1`, the results for the half-inhibitory concentration (IC50) in the experiment on CCRF-CEM, in the experiment with HT-29 and with L1210 were 1600 nM, 20 µM and 1500 nM, respectively.

In the case of `Cc1ccc(C(=O)C#Cc2cn(COCCO)c(=O)[nH]c2=O)cc1`, the IC50 with CCRF-CEM stood at 700 nM; in the experiment with HT-29, 8 µM; with L1210 it was 900 nM.

In the case of `Cc1ccccc1C(=O)C#Cc1cn(COCCO)c(=O)[nH]c1=O`, the IC50 with CCRF-CEM worked out at 900 nM; in the experiment with HT-29, 25 µM; in the experiment with L1210, 2200 nM.

For `Cc1cccc(C(=O)C#Cc2cn(COCCO)c(=O)[nH]c2=O)c1`, the IC50 was found to be 600 nM in the experiment on CCRF-CEM, 14 µM in the experiment with HT-29 and 700 nM in the experiment on L1210.
